What was measured:
potato gray mold = assay: Toxicity test of potato gray mold (pot test on sprayed seedlings, EC50 and co-toxicity coefficient by Sun Yunpei's method); type: in vivo; conditions: for EC50 (PPM): potato seedlings, sprayed 24 h before inoculation, disease index after seven days; for TTI: toxicity index, potato gray mold
Experimental: (§1) The toxicity index of each of the formulations and the co-toxicity coefficient (CTC value) of the mixed formulation were calculated according to Sun Yunpei's method. […] Actual toxicity index (ATI) = (standard formulation EC50/testing formulation EC50)*100 [formula]
(§2) Theoretical toxicity index (TTI) = (toxicity index of formulation A * percentage of A in the mixed formulation) + (toxicity index of formulation B * percentage of B in the mixed formulation) Co−toxicity coefficient (CTC) = [actual toxicity index(ATI) of the mixed formulation/theoretical toxicity index (TTI)of the mixed formulation]*100 [formula]
(§3) The samples were selected from potato seedlings in the same growing period of three to four leaf stage. Three pots were selected for each treatment and each pot was sprayed with 5 mL with a potter spray tower at the pressure of 50 PSI and each chemical was set for 12 concentration gradients. Inoculation was carried out 24 hours after the treatment of the formulations. The conidiums from the leaves with potato gray mold (collected from a field) was spread evenly on the potato seedlings, and then the potato seedlings were put in the green house for culturing.
(§4) Seven days later, the disease index for the whole plant was studied according to the pathological grading standard of potato gray mold. The prevention and control efficacy was determined, and the generalized least square method was applied to calculate the half maximal effective concentration EC50. The Sun Yunpei's method was applied to calculate the co-toxicity coefficient (CTC). Table 2: Toxicity Test Result of Applying the Present Invention to Prevent and Control Potato Gray Mold

potato cinerea = assay: Activity of preventing and controlling grey mould of potato (Colby synergy test, visual observation); type: in vivo; conditions: Solanum tuberosum, potato seedlings in pots, read-out: Observed activity (%)
From the text: A synergistic effect exists when the fungicidal activity of the active compound composition is greater than the sum of the activities of the active compounds applied individually. The expected activity for a given combination of two active compounds can be calculated in accordance with Colby's formula (refer to S.R. Colby, "Calculating Synergistic and Antagonistic Responses of Herbicide Combinations", Weeds 1967, 15, 20-22) as follows: • If X denotes the activity when using active compound A at an application rate of mg/ha or in a concentration of mppm; • Y denotes the activity when using active compound B at an application rate of ng/ha or in a concentration of nppm; • E denotes the activity when using active compounds A and B at application rates of m and ng/ha or in concentration of m and n ppm;
Then: E = X + Y−(X⋅Y)/(100) [formula]
The leaves of the potato seedlings in pots were sprayed with the suspension concentrate in a range of concentrations of the active compounds.
The next day, the treated plants were inoculated with a spore suspension of potato cinerea. The pots were then allowed to stand for 24 hours in a room at 20-22 °C and with high humidity (90-95%). During this period, the spores germinated and the germ tubes penetrated into the leaf tissues. […] Later, the development of cinerea on the leaves was determined by visual observation.

cabbage leaf spot = assay: Toxicity test of leaf spot of cabbage (pot test on sprayed seedlings, EC50 and co-toxicity coefficient by Sun Yunpei's method); type: in vivo; conditions: for EC50 (PPM): cabbage seedlings, sprayed 24 h before inoculation, disease index after seven days; for TTI: toxicity index, cabbage leaf spot
Experimental: as §1, §2
(§5) The samples were selected from the cabbage seedlings in the same growing period. Three pots were selected for each treatment and each pot was sprayed with 5 mL with a potter spray tower at the pressure of 50 PSI and each chemical was set for 12 concentration gradients. Inoculation was carried out 24 hours after the treatment of the formulations. The conidiums from the leaves with cabbage leaf spot (collected from the field) was spread evenly on the cabbage seedlings, and the cabbage seedlings were then put in the green house for culturing.
(§6) Seven days later, the disease index for the whole plant was studied according to the pathological grading standard of cabbage leaf spot. The prevention and control efficacy was determined, and the generalized least square method was then applied to calculate the half maximal effective concentration EC50. The Sun Yunpei's method was applied to calculate the co-toxicity coefficient (CTC). Table 3: Toxicity Test Result of Applying the Present Invention to Prevent and Control Leaf Spot of Cabbage

sclerotia sclerotium = conditions: after applying it once in a suitable period; cited from earlier work
wheat downy mildew = assay: Toxicity test of wheat downy mildew (pot test on sprayed seedlings, EC50 and co-toxicity coefficient by Sun Yunpei's method); type: in vivo; conditions: for TTI: toxicity index, wheat downy mildew; for EC50 (PPM): wheat seedlings, sprayed 24 h before inoculation, disease index after seven days
Experimental: as §1, §2
as §3, with “wheat” for “potato”, “wheat downy mildew” for “potato gray mold”
as §4, with “wheat downy mildew.” for “potato gray mold.”, “1:” for “2:”, “Wheat Downy Mildew” for “Potato Gray Mold”

tomato downy mildew = assay: Toxicity test of downy mildew of tomato (pot test on sprayed seedlings, EC50 and co-toxicity coefficient by Sun Yunpei's method); type: in vivo; conditions: for EC50 (PPM): tomato seedlings, sprayed 24 h before inoculation, disease index after seven days; for TTI: toxicity index, tomato downy mildew
Experimental: as §1, §2
as §5, with “tomato” for “cabbage”, “set” for “set for”, “tomato downy mildew” for “cabbage leaf spot”
as §6, with “tomato downy mildew.” for “cabbage leaf spot.”, “4:” for “3:”, “Tomato Downy Mildew” for “Leaf Spot of Cabbage”

| SMILES | EC50 (PPM) (potato gray mold) | TTI (potato gray mold) | activity at 8 ppm (potato cinerea; Concentration 8 ppm) | EC50 (PPM) (cabbage leaf spot) | TTI (cabbage leaf spot) | control effect and disease index (sclerotia sclerotium) | TTI (wheat downy mildew) | EC50 (PPM) (wheat downy mildew) | EC50 (PPM) (tomato downy mildew) | TTI (tomato downy mildew) | activity at 40 ppm (potato cinerea; Concentration 40 ppm) |
| --- | --- | --- | --- | --- | --- | --- | --- | --- | --- | --- | --- |
| O=C(Nc1ccccc1-c1ccc(Cl)cc1)c1cccnc1Cl [Boscalid, 2-chloro-N-(4'-chlorobiphenyl-2-yl) nicotinamide] | 15.23 PPM | 100 | 28% | 26.13 PPM | 100 | more than 80% | 100 | 16.23 PPM | 22.24 PPM | 100 | – |
| N#Cc1c(Cl)c(Cl)c(Cl)c(C#N)c1Cl [Chlorothalonil, 2,4,5,6-tetrachloro-1,3-benzenedicarbonitrile] | 38.03 PPM | 68.71 | – | 38.03 PPM | 68.71 | – | 86.5 | 18.76 PPM | 32.27 PPM | 68.91 | 0% |

Reference: patent publication EP3023007A1, “[…]” (JIANGSU ROTAM CHEMISTRY CO., LTD., priority 2013, dated 2015)
